The values that follow come from ChEMBL document CHEMBL1201862, “PubChem BioAssay data set” (2004).

Molecules are shown by their SMILES.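 Results reflect a 48-hour exposure of cells in 96-well plates to compound at five concentrations. Abbreviation: GI50, concentration required for 50% inhibition of growth.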 Calls of active or inactive are those of the source. No stated cut-off is given here; in the data, active = GI50 up to about 1.1 µM and inactive = higher.

Test systems include HOP-62; SK-MEL-5; NCI-H23; DU-145; CAKI-1; BT-549; SF-295; SW-620; SK-MEL-28; MDA-N; HL-60; RXF 393; RPMI-8226; SR; Malme-3M; HCT-116; SF-268; MDA-MB-231; UACC-62; HCC 2998.
Assay in all cases: growth of human tumour cells (NCI), 48 h

With `Clc1ccc(OCc2nnc3sc(-c4ccc(-c5ccc(Cl)cc5Cl)o4)nn23)cc1`, the GI50 in the experiment on HOP-62, in the experiment on SK-MEL-5, in the experiment with NCI-H23, in the experiment on DU-145, in the experiment with CAKI-1 and in the experiment with BT-549 was > 100 µM (inactive) each time. Further, the GI50 is 89.1 µM (inactive) in the experiment on SF-295; > 100 µM (inactive) with SW-620; > 100 µM (inactive) in the experiment with SK-MEL-28; > 100 µM (inactive) with MDA-N; > 100 µM (inactive) in the experiment on HL-60; 16.4 µM (inactive) with RXF 393. The GI50 in the experiment with RPMI-8226, in the experiment on SR, in the experiment with Malme-3M, in the experiment with HCT-116, with SF-268 and with MDA-MB-231 was > 100 µM (inactive) throughout.

For `Cc1ccc(S(=O)(=O)n2ccn3c(=O)cc(C)nc23)cc1`, the GI50 with HOP-62, with SK-MEL-5, in the experiment with NCI-H23, with UACC-62, with DU-145 and with CAKI-1 was > 10 µM (inactive) each time. The GI50 with BT-549, in the experiment with SF-295, in the experiment on SW-620, in the experiment with SK-MEL-28, in the experiment on MDA-N and in the experiment with HL-60 was > 10 µM (inactive) each time. The GI50 in the experiment on RXF 393, in the experiment on RPMI-8226, in the experiment on SR, in the experiment with Malme-3M, with HCT-116 and in the experiment on SF-268 was > 10 µM (inactive) each time. Besides, in the experiment with MDA-MB-231, the GI50 is > 10 µM (inactive).

Regarding `CN(C)N1C(=O)CC2(CCN(CCCC(=O)c3ccc(F)cc3)CC2)C1=O`, the GI50 in the experiment with HOP-62, in the experiment with SK-MEL-5, with NCI-H23, in the experiment on UACC-62, in the experiment on DU-145 and in the experiment with CAKI-1 was > 100 µM (inactive) each time. The GI50 with BT-549, in the experiment with SF-295, with SW-620, with SK-MEL-28, in the experiment on MDA-N and in the experiment on HL-60 was > 100 µM (inactive) throughout. The GI50 in the experiment on RXF 393, in the experiment with RPMI-8226, with SR, in the experiment on Malme-3M, in the experiment with HCT-116 and in the experiment on SF-268 was > 100 µM (inactive) throughout. For the same molecule, the GI50 in the experiment on MDA-MB-231 is > 100 µM (inactive).

As for `N#C/C(C(=O)CCl)=C1\Nc2ccccc2O1`, the GI50 with HOP-62 was 4.89 µM (inactive); with SK-MEL-5 it was 1.72 µM (inactive); with NCI-H23, 3.75 µM (inactive); with UACC-62, 2.35 µM (inactive); in the experiment on DU-145, 10.2 µM (inactive); in the experiment with CAKI-1 it was 3.65 µM (inactive). Also, the GI50 with BT-549 was 2.17 µM (inactive); in the experiment with SF-295, 2.62 µM (inactive); in the experiment on SW-620 it was 4.33 µM (inactive); with SK-MEL-28 it was 1.63 µM (inactive); in the experiment with MDA-N, 3.71 µM (inactive); in the experiment on HL-60, 2.43 µM (inactive). Also, the GI50 in the experiment on RXF 393 was 1.85 µM (inactive); in the experiment with RPMI-8226, 2.92 µM (inactive); in the experiment with SR it was 3.84 µM (inactive); in the experiment with Malme-3M it was 7.28 µM (inactive); in the experiment with HCT-116, 3.43 µM (inactive); in the experiment on SF-268, 2.67 µM (inactive). Besides, the GI50 with MDA-MB-231 is 2.89 µM (inactive).

For `N#CC1Cc2cc3c(cc21)OCO3` (stereo unspecified), the GI50 with HOP-62, in the experiment on SK-MEL-5, in the experiment with NCI-H23, with UACC-62, with DU-145 and in the experiment with HCC 2998 was > 100 µM (inactive) in each case. Moreover, the GI50 in the experiment with CAKI-1, with BT-549, with SF-295, in the experiment with SW-620, in the experiment with SK-MEL-28 and in the experiment on MDA-N was > 100 µM (inactive) in each case. Besides, the GI50 in the experiment on SR, with Malme-3M, with HCT-116 and in the experiment with MDA-MB-231 was > 100 µM (inactive) throughout.

Regarding `C=CCn1cnc2c(O)nc(Nc3ccccc3)nc21`, the GI50 in the experiment on HOP-62, with SK-MEL-5, in the experiment on UACC-62, in the experiment with DU-145, with HCC 2998 and in the experiment on CAKI-1 was > 100 µM (inactive) throughout. The GI50 in the experiment on BT-549, in the experiment on SF-295, in the experiment with SW-620, in the experiment with SK-MEL-28, in the experiment with MDA-N and in the experiment with HL-60 was > 100 µM (inactive) in each case. Besides, the GI50 in the experiment on RPMI-8226, with SR, in the experiment with Malme-3M, in the experiment on HCT-116, in the experiment on SF-268 and in the experiment on MDA-MB-231 was > 100 µM (inactive) each time.

On to `C1=N\CCOCC/N=C/c2ccccc2OCc2cccc(n2)COc2ccccc2/1`, for which the GI50 in the experiment with HOP-62 is 16.5 µM (inactive); in the experiment with NCI-H23 it was 12.5 µM (inactive); in the experiment with UACC-62 it was 2.27 µM (inactive); in the experiment with DU-145, 6.61 µM (inactive); with BT-549, 6.76 µM (inactive); in the experiment with SF-295 it was 4.02 µM (inactive). The GI50 in the experiment on SW-620 was 4.79 µM (inactive); with SK-MEL-28, 8.13 µM (inactive); in the experiment with MDA-N, 0.942 µM (active); in the experiment with HL-60, 5.07 µM (inactive); with RXF 393, 9.59 µM (inactive); in the experiment with RPMI-8226, 4.88 µM (inactive). Besides, the GI50 with SR is 0.977 µM (active); with Malme-3M, 4.53 µM (inactive); with HCT-116, 4.99 µM (inactive); with SF-268, 9.4 µM (inactive); in the experiment with MDA-MB-231, 8.93 µM (inactive).

Turning to `Cc1cccc(N2C(=O)C3ON(C(C(N)=O)c4ccccc4)C(c4c5ccccc5c(Cl)c5ccccc45)C3C2=O)c1C` (stereo unspecified), the GI50 in the experiment on HOP-62 was 10.6 µM (inactive); with SK-MEL-5 it was 7.03 µM (inactive); in the experiment with NCI-H23 it was 11.6 µM (inactive); with UACC-62, 6.84 µM (inactive); in the experiment on DU-145 it was 10.4 µM (inactive); with CAKI-1, 9.06 µM (inactive). Besides, the GI50 was 9.98 µM (inactive) in the experiment on BT-549; 9.66 µM (inactive) in the experiment with SF-295; 3.53 µM (inactive) with SW-620; 13 µM (inactive) in the experiment on SK-MEL-28; 3.3 µM (inactive) in the experiment with MDA-N; 4.12 µM (inactive) in the experiment with HL-60. The GI50 in the experiment with RXF 393 was 5.66 µM (inactive); in the experiment with SR, 1.69 µM (inactive); in the experiment with Malme-3M, 11.4 µM (inactive); in the experiment with HCT-116, 1.34 µM (inactive); with SF-268, 9.59 µM (inactive); in the experiment with MDA-MB-231, 9.42 µM (inactive).

`C[N+](C)(C)CCCSc1nc2ccccc2[nH]1`: the GI50 with HOP-62, with SK-MEL-5, with NCI-H23, in the experiment on UACC-62, with DU-145 and with HCC 2998 was > 100 µM (inactive) each time. Moreover, the GI50 with CAKI-1, with BT-549, with SF-295, in the experiment on SW-620, in the experiment with SK-MEL-28 and in the experiment on MDA-N was > 100 µM (inactive) each time. Moreover, the GI50 with HL-60, in the experiment with RXF 393, in the experiment with RPMI-8226, with Malme-3M, with HCT-116 and in the experiment on SF-268 was > 100 µM (inactive) throughout. Besides, the GI50 with MDA-MB-231 was > 100 µM (inactive).

With `COc1cc(OC)c(OC)cc1/C=C/c1cnnc2ccccc12`, the GI50 in the experiment with HOP-62, with SK-MEL-5, in the experiment with NCI-H23, in the experiment on UACC-62, in the experiment on DU-145 and in the experiment with HCC 2998 was > 10 µM (inactive) each time. Moreover, the GI50 is > 10 µM (inactive) in the experiment on CAKI-1; > 10 µM (inactive) in the experiment with BT-549; > 10 µM (inactive) in the experiment on SF-295; > 10 µM (inactive) in the experiment on SW-620; > 10 µM (inactive) in the experiment on SK-MEL-28; 4.05 µM (inactive) in the experiment on MDA-N. Further, the GI50 with HL-60, in the experiment with RXF 393, in the experiment on RPMI-8226, in the experiment with Malme-3M, in the experiment on HCT-116 and in the experiment with SF-268 was > 10 µM (inactive) in each case. In the experiment on MDA-MB-231, the GI50 was > 10 µM (inactive).

Turning to `O=c1ccc(=O)n(-c2ccccc2)[nH]1`, the GI50 with HOP-62, in the experiment with SK-MEL-5, in the experiment on NCI-H23, with UACC-62, in the experiment with DU-145 and with HCC 2998 was > 100 µM (inactive) each time. Also, the GI50 in the experiment on CAKI-1, in the experiment on BT-549, with SF-295, in the experiment with SW-620, in the experiment with SK-MEL-28 and in the experiment on MDA-N was > 100 µM (inactive) throughout. The GI50 in the experiment on HL-60, in the experiment on RXF 393, in the experiment with RPMI-8226, in the experiment on Malme-3M, in the experiment with HCT-116 and in the experiment with SF-268 was > 100 µM (inactive) each time. In addition, the GI50 in the experiment on MDA-MB-231 is > 100 µM (inactive).
